Measurements published in ChEMBL document CHEMBL1777712, “The identification of new metallo-β-lactamase inhibitor leads from fragment-based screening” (Bioorg Med Chem Lett, 2011).

How the values were obtained:
[1] = Un-competitive inhibition of metallo-beta-lactamase IMP-1 expressed in Escherichia coli BL21(DE3) using benzylpenicillin as substrate by 96-well plate assay
[2] = Competitive inhibition of metallo-beta-lactamase IMP-1 expressed in Escherichia coli BL21(DE3) using benzylpenicillin as substrate by 96-well plate assay
[3] = Competitive inhibition of metallo-beta-lactamase IMP-1 expressed in Escherichia coli BL21(DE3) using penicillin G as substrate by 96-well plate assay
[4] = Competitive inhibition of metallo-beta-lactamase IMP-1 expressed in Escherichia coli BL21(DE3) using penicillin G as substrate by cuvette assay

NC(=O)Cc1ccc(F)cc1Cl
Ki [1]: 680 µM
Ki [2]: 760 µM

Nc1ccc(Cn2ccnc2)cc1
Ki [1]: 1180 µM
Ki [2]: 1510 µM

OCc1ccc(Cn2ccnc2)cc1
Ki [1]: 790 µM
Ki [2]: > 2000 µM

Cn1c(S)nnc1C(F)(F)F
Ki [1]: > 2000 µM
Ki [2]: 970 µM

OCc1ccc(-n2ccnc2)cc1
Ki [1]: 500 µM
Ki [2]: > 2000 µM

Nc1cccc(-c2cccnc2)c1
Ki [1]: 900 µM
Ki [2]: 510 µM

Nc1ccc(C(F)(F)F)cc1N
Ki [1]: 430 µM
Ki [2]: 990 µM

COC(=O)c1cccc(CN)c1
Ki [1]: 410 µM
Ki [2]: 890 µM

Nc1cccc(Cn2ccnc2)c1
Ki [1]: 780 µM
Ki [2]: 1640 µM

C[C@H](CS)C(=O)N1CCC[C@H]1C(=O)O [CAPTOPRIL]
Ki [3]: 7.2 µM
Ki [1]: > 2000 µM
Ki [4]: 12.5 µM
